Measured values from patent US6114334A, “Piperazine derivatives as therapeutic agents” (Knoll Aktiengesellschaft, priority 1995, dated 2000).

Tests used:
5-HT1A receptors = target: T1, 5-HT1A receptors (Rattus norvegicus, UniProt P19327); test: inhibition of [3H]8-OH-DPAT binding to 5-HT1A receptors in vitro; set-up: species or system rat (male Sprague-Dawley, hippocampal tissue); conditions: rat hippocampus; for Ki: [3H]8-OH-DPAT 2 nM, 25° C., 30 min
T1 sequence (P19327 1-422): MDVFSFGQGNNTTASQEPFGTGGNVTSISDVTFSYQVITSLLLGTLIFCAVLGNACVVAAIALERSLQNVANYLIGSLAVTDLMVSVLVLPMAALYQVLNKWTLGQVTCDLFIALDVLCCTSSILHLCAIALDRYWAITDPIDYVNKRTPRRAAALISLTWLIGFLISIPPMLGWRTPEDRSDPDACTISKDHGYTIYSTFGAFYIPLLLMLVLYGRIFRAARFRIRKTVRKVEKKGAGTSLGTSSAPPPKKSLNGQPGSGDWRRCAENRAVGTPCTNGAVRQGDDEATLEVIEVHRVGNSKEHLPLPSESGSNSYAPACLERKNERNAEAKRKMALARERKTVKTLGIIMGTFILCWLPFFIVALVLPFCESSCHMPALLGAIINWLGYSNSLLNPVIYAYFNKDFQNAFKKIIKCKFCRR

α2A-adrenoceptors = target: T2, α2A-adrenoceptors (Homo sapiens, UniProt P08913); test: inhibition of tritiated RX 821002 binding to α2A-adrenoceptors in vitro; set-up: species or system human (cerebral cortex post-mortem); conditions: human cerebral cortex; for inhibition at 1 µM: 10^-6 M, [3H]RX 821002, read-out: % displacement at 10^-6 M, α2A; for Ki: [3H]RX 821002 0.2 nM, 0° C., 75 min
T2 construct: Human cerebral cortex obtained at post-mortem; from tissue; host or cells: human cerebral cortex, post-mortem
T2 sequence (P08913 1-465): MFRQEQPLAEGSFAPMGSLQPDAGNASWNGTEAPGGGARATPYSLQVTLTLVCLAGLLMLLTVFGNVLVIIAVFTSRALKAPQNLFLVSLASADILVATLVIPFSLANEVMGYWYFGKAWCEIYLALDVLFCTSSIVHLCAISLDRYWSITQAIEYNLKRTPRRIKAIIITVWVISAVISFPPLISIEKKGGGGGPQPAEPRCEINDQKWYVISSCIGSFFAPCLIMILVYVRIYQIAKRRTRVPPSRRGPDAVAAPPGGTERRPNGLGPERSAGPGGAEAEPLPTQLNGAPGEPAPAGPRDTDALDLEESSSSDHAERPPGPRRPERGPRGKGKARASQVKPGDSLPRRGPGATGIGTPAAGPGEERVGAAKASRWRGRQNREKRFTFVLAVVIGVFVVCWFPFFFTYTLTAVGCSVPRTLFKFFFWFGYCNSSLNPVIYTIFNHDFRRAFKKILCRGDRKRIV
Protocol: Human cerebral cortex obtained at post-mortem was homogenised in ice-cold 0.25M sucrose (1:30 w/v) and centrifuged at 1,000 g at 4° C. for 12 minutes. The supernatant was stored on ice and the pellet was rehomogenised in 0.25M sucrose (1:15 w/v) and centrifuged at 850 g at 4° C. for 12 minutes. Combined supernatants were diluted with 5 mM Tris-HCl (pH 7.5) containing 5 mM ethylenediamine tetraacetic acid (EDTA), readjusted to pH 7.5 (at 25° C.) with 1M sodium hydroxide to 1:80 w/v, and centrifuged at 11,000 g at 4° C. for 10 minutes. The resulting pellet was resuspended in 50 mM Tris-HCl (pH 7.5) containing 5.68 mM L-ascorbic acid and 0.5 mM EDTA, readjusted to pH 7.5 (at 25° C.) with 1M sodium hydroxide to 1:80 w/v, and centrifuged at 11,000 g for 10 minutes. The pellet was stored at -80° C. On the day of the assay the pellet was thawed, resuspended in 50 mM Tris-HCl (pH 7.5) containing 5.68 mM L-ascorbic acid and 5 mM EDTA to 1:80 w/v and centrifuged at 11,000 g for 10 minutes. The final pellet was resuspended in 50 mM Tris-HCl (pH 7.5) containing 5.68 mM L-ascorbic acid and 5 mM EDTA (equivalent to 25 mg wet weight of tissue/ml).
Aliquots (400 μl; equivalent to 10 mg wet weight of tissue/tube) of this suspension were added to tubes containing the ligand (50 μl; 0.2 nM) and distilled water (50 μl; total binding) or phentolamine (50 μl; 50 μM; non-specific binding) or test compound (50 μl; at a single concentration of 10^-6 M or at 10 concentrations ranging from 10^-11 -10^-3 M). The ligand was tritiated RX 821002 (2-(2-methoxy-1,4-[6,7(n)-^3 H]benzodioxan-2-yl)-2-imidazoline) and the mixture was incubated at 0° C. for 75 minutes before the incubation was terminated by rapid filtration.
The filters were washed with ice-cold Tris-HCl buffer and dried. The filters were punched out into vials, scintillation fluid added and radioactivity determined by liquid scintillation counting. The percentage displacement of specific binding of the tritiated ligand was calculated for the single concentration (10^-6 M) of test compound. Displacement curves were then produced for those compounds which displaced ≥50% of specific binding of the tritiated ligand at 10^-6 M using a range of concentrations of the compound. The concentration which gave 50% inhibition of specific binding (IC50) was obtained from the curve. The inhibition coefficient Ki was then calculated using the formula [formula] in which [ligand] is the concentration of the tritiated ligand used and KD is the equilibrium dissociation constant for the ligand.

α2D-adrenoceptors = target: T3, α2D-adrenoceptors (Rattus norvegicus, UniProt P22909); test: inhibition of tritiated idazoxan binding to α2D-adrenoceptors in vitro; set-up: species or system rat (male Charles River CD, frontal cortical tissue); conditions: rat frontal cortex; for Ki: [3H]idazoxan 1 nM, 0° C., 75 min; for inhibition at 1 µM: 10^-6 M, [3H]idazoxan, read-out: % displacement at 10^-6 M, α2D
T3 sequence (P22909 1-465): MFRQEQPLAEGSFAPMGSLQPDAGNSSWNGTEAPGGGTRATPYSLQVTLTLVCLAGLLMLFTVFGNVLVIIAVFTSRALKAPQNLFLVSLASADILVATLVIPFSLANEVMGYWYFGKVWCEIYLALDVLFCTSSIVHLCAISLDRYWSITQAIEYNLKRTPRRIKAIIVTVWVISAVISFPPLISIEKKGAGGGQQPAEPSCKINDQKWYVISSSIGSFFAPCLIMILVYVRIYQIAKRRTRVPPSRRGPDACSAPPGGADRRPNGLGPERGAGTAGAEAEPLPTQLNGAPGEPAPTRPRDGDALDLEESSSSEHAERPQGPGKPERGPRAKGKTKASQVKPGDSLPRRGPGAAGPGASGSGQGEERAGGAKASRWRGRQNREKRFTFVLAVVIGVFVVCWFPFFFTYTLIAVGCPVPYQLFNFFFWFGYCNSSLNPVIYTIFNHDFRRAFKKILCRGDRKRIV

α1-adrenoceptors = test: inhibition of 7-methoxy-[3H]prazosin binding to α1-adrenoceptors in vitro; set-up: species or system rat (male Charles River CD, whole cortical tissue); conditions: rat whole cortex, 30 min; for Ki: 7-methoxy-[3H]prazosin 0.1 nM, 30° C.
Procedure, shortened: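 Male CD rat cortical membranes in 50 mM Tris-HCl pH 7.6 were incubated 30 min at 30 °C with 7-methoxy-[3H]prazosin (0.1 nM as added), with 5 μM phentolamine (as added) defining non-specific binding, then filtered and counted. Compounds were tested at 10^-6 M for % displacement or at 10^-11–10^-3 M for IC50, and Ki was derived from IC50, ligand concentration and KD.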

D2 dopamine receptors = D2 dopamine receptors (Rattus norvegicus, UniProt P61169); test: inhibition of tritiated (S)-sulpiride binding to D2 dopamine receptors in vitro; set-up: species or system rat (male Charles River CD, striatal tissue); conditions: rat striatum, tritiated (S)-sulpiride 1 nM, 4° C., 40 min
Chain of D2 dopamine receptors (P61169 whole entry): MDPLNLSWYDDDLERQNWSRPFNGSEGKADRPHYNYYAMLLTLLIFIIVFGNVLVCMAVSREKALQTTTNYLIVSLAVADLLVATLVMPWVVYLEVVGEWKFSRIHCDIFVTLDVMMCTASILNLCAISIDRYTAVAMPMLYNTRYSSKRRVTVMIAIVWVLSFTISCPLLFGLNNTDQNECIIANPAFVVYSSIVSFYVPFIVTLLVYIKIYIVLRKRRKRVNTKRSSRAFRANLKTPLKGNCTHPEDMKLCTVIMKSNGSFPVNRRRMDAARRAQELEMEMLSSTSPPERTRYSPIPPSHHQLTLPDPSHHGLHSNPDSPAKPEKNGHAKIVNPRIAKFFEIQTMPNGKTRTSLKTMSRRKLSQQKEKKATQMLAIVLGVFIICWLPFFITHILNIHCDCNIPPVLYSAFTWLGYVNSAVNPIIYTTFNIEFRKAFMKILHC

Ki (5-HT1A receptors) [µM] | inhibition at 1 µM (α2A-adrenoceptors) [%] | Ki (α2D-adrenoceptors) [µM] | Ki (α1-adrenoceptors) [µM] | Ki (D2 dopamine receptors) [µM] | inhibition at 1 µM (5-HT1A receptors; 10^-6 M, [3H]8-OH-DPAT, read-out: % displacement at 10^-6 M, 5-HT1A) [%] | inhibition at 1 µM (α2D-adrenoceptors) [%] | % displacement at 10^-6 M, α1 (α1-adrenoceptors; 10^-6 M, 7-methoxy-[3H]prazosin, 1 µM) [%] | Ki (α2A-adrenoceptors) [µM] | Compound
– | 99 | – | – | > 0.5 | 74 | 81 | 80 | – | Nc1c(CN2CCN(c3cccc(Cl)c3)CC2)c(C2CC2)nn1-c1ccccc1 [Example 14, 5-Amino-4-[4-(3-chlorophenyl)piperazin-1-ylmethyl]-3-cyclopropyl-1-phenylpyrazole]
0.059 | 86 | 0.061 | 0.027 | > 0.5 | – | – | – | – | COc1ccc(-n2nc(C3CC3)c(CN3CCN(c4cccc5c4OCCO5)CC3)c2N)cc1 [Example 17, 5-Amino-4-[4-(1,4-benzodioxan-5-yl)piperazin-1-ylmethyl]-3-cyclopropyl-1-(4-methoxyphenyl)pyrazole]
0.256 | 100 | 0.0049 | 0.038 | > 0.5 | – | – | – | – | Cc1ccccc1N1CCN(Cc2c(C3CC3)nn(-c3ccccc3)c2N)CC1 [Example 19, 5-Amino-3-cyclopropyl-4-[4-(2-methylphenyl)piperazin-1-ylmethyl]-1-phenylpyrazole]
0.058 | 89 | 0.032 | 0.021 | 0.451 | – | – | – | – | Nc1c(CN2CCN(c3cccc4c3OCCO4)CC2)c(C2CCCC2)nn1-c1ccccc1 [Example 21, 5-Amino-4-[4-(1,4-benzodioxan-5-yl)piperazin-1-ylmethyl]-3-cyclopentyl-1-phenylpyrazole]
0.022 | 100 | 0.0017 | 0.017 | 0.109 | – | – | – | – | CC(C)Oc1ccccc1N1CCN(Cc2c(C3CC3)nn(-c3ccccc3)c2N)CC1 [Example 23, 5-Amino-3-cyclopropyl-4-[4-(2-isopropoxyphenyl)piperazin-1-ylmethyl]-1-phenylpyrazole]
0.016 | 99 | 0.0049 | 0.0071 | > 0.5 | – | – | – | – | Nc1c(CN2CCN(c3cccc4ccoc34)CC2)c(C2CC2)nn1-c1ccccc1 [Example 27, 5-Amino-4-[4-(7-benzo[b]furanyl)piperazin-1-ylmethyl]-3-cyclopropyl-1-phenylpyrazole]

Further lines, the compound ahead of its results:

Compound | Ki (5-HT1A receptors) [µM] | inhibition at 1 µM (α2A-adrenoceptors) [%] | Ki (α2D-adrenoceptors) [µM] | Ki (α1-adrenoceptors) [µM] | Ki (D2 dopamine receptors) [µM] | inhibition at 1 µM (5-HT1A receptors; 10^-6 M, [3H]8-OH-DPAT, read-out: % displacement at 10^-6 M, 5-HT1A) [%] | inhibition at 1 µM (α2D-adrenoceptors) [%] | % displacement at 10^-6 M, α1 (α1-adrenoceptors; 10^-6 M, 7-methoxy-[3H]prazosin, 1 µM) [%] | Ki (α2A-adrenoceptors) [µM]
Cn1nc(-c2ccccc2)c(CN2CCN(c3cccc4c3OCCO4)CC2)c1N [Example 13, 5-Amino-4-[4-(1,4-benzodioxan-5-yl)piperazin-1-ylmethyl]-1-methyl-3-phenylpyrazole] | 0.021 | 95 | 0.156 | 0.057 | > 0.5 | – | – | – | –
Nc1c(CN2CCN(c3cccc4c3OCCO4)CC2)c(C2CC2)nn1-c1ccccn1 [Example 16, 5-Amino-4-[4-(1,4-benzodioxan-5-yl)piperazin-1-ylmethyl]-3-cyclopropyl-1-(2-pyridyl)pyrazole] | 0.0041 | 100 | 0.0097 | 0.035 | 0.085 | – | – | – | –
Nc1c(CN2CCN(c3cccc4c3OCCO4)CC2)c(C2CC2)nn1-c1ccc(Cl)cc1 [Example 20, 5-Amino-4-[4-(1,4-benzodioxan-5-yl)piperazin-1-ylmethyl]-1-(4-chlorophenyl)-3-cyclopropylpyrazole] | 0.061 | 89 | 0.015 | 0.019 | 0.445 | – | – | – | –
CC(C)(C)c1nn(-c2ccccc2)c(N)c1CN1CCN(c2cccc3c2OCCO3)CC1 [Example 22, 5-Amino-4-[4-(1,4-benzodioxan-5-yl)piperazin-1-ylmethyl]-3-tert-butyl-1-phenylpyrazole] | 0.029 | 66 | > 0.5 | > 0.5 | > 0.5 | – | – | – | –
CC(C)(C)n1nc(C2CC2)c(CN2CCN(c3cccc4c3OCCO4)CC2)c1N [Example 24, 5-Amino-4-[4-(1,4-benzodioxan-5-yl)piperazin-1-ylmethyl]-1-tert-butyl-3-cyclopropylpyrazole] | 0.021 | – | 0.013 | 0.177 | 0.422 | – | – | – | 0.039
Cn1nc(C2CC2)c(CN2CCN(c3cccc4c3OCCO4)CC2)c1N [Example 25, 5-Amino-4-[4-(1,4-benzodioxan-5-yl)piperazin-1-ylmethyl]-3-cyclopropyl-1-methylpyrazole] | 0.015 | – | 0.035 | 0.126 | > 0.5 | – | – | – | 0.014
Nc1c(CN2CCN(c3cccc4c3OCCO4)CC2)c(C2CC2)nn1Cc1ccccc1 [Example 26, 5-Amino-4-[4-(1,4-benzodioxan-5-yl)piperazin-1-ylmethyl]-1-benzyl-3-cyclopropylpyrazole] | 0.015 | 100 | 0.0089 | 0.0099 | 0.185 | – | – | – | –
CC(C)Oc1ccccc1N1CCN(Cc2c(C3CCC3)nn(C)c2N)CC1 [Example 28, 5-Amino-3-cyclobutyl-4-[4-(2-isopropoxyphenyl)piperazin-1-ylmethyl]-1-methylpyrazole] | 0.04 | 99 | – | 0.027 | 0.025 | – | 93 | – | –
